These results are taken from US20210380548A1, “Fused [1,2,4]Thiadiazine Derivatives Which Act as KAT Inhibitors of the MYST Family” (CTxT Pty Limited, priority 2017, published 2021).

Assay [1] deals with T1, MOZ-KAT6A (Homo sapiens, UniProt Q92794, A567V).
T1 construct: encoding amino acid residues 507 to 778 (Uniprot Q92794-1) of human KAT6A; made in house; host or cells: E. coli BL21 DE3
The assay is described as follows: Acetyltransferase biochemical assay (AlphaScreen), KAT6A. Conditions: Table 2 (MOZ-KAT6A); 10 μM Acetyl coenzyme A, histone H3.1, 5 nM enzyme. For orientation: Alpha assays give light when donor and acceptor beads are brought close together.

The target in assay [2] is T2, TIP60-KAT5 (Homo sapiens, UniProt Q92993).
T2 construct: encoding amino acid residues 2 to 461 (Uniprot Q92993-2) of human KAT5 isoform; made in house; host or cells: E. coli BL21 DE3
As to the kind of experiment: Acetyltransferase biochemical assay (AlphaScreen), KAT5. The settings on record: Table 1 (TIP60-KAT5); 0.4 μM Acetyl coenzyme A, histone H4, 10 nM enzyme.

Assay [3] addresses T3, HBO-KAT7 (Homo sapiens, UniProt O95251).
T3 construct: encoding amino acid residues 325 to 611 (Uniprot 095251-1) of human KAT7; made in house; host or cells: E. coli BL21 DE3 RIL
As to the kind of experiment: Acetyltransferase biochemical assay (AlphaScreen), KAT7. Conditions: Table 3 (HBO-KAT7); 0.4 μM Acetyl coenzyme A, histone H3.1, 40 nM enzyme.

Structures are written as SMILES. Bounds are passed on as bounds.

T3 sequence (O95251 with tags, fused parts or gaps): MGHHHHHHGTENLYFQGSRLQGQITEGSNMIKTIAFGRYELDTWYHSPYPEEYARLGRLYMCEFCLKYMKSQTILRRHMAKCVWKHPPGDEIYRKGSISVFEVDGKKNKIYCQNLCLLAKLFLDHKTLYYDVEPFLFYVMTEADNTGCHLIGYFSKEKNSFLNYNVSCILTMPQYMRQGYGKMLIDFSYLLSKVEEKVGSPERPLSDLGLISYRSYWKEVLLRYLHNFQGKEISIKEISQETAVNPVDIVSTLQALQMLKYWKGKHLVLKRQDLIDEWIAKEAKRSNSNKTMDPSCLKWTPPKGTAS
T2 sequence (Q92993 2-461 isoform Q92993-2): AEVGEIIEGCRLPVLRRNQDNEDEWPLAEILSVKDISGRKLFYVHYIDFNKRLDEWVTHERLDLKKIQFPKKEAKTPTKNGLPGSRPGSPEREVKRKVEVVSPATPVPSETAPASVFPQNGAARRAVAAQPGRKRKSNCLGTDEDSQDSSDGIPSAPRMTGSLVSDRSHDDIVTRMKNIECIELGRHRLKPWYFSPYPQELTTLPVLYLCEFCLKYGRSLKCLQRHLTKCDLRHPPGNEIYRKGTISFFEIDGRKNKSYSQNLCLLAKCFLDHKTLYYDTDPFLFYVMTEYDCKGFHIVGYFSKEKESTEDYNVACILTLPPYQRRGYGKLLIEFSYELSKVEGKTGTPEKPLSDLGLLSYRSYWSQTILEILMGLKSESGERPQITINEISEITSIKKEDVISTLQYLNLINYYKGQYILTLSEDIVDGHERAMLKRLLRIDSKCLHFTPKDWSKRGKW
T1 sequence (Q92794 507-778 A567V limits assumed): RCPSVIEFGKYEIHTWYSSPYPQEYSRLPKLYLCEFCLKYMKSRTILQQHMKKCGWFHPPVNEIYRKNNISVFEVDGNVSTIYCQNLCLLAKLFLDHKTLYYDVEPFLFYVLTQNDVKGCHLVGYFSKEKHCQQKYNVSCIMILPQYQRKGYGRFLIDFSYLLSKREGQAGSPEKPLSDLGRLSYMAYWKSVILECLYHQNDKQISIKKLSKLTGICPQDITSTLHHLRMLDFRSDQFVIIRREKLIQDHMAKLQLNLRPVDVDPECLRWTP

For `O=C(NCC(c1ccccc1)c1ncco1)C1=Nc2ccc(O)cc2S(=O)(=O)N1` (single isomer, unassigned) [Example 148], the IC50 – broadly, the point on the concentration scale where inhibition reaches its midpoint – in assay [1] was 5.39 µM; in assay [2], 45.7 µM. `O=C(NCC(c1ccccc1)c1ncco1)C1=Nc2ccc(O)cc2S(=O)(=O)N1` (single isomer, unassigned) [Example 149]: the IC50 was found to be 0.102 µM in assay [1] and 4.88 µM in assay [2]. For `O=C(NCC(c1ccccc1)c1ncc[nH]1)C1=Nc2ccccc2S(=O)(=O)N1` (single isomer, unassigned) [Example 152], in that order: 47.5 µM and 52.8 µM. For `O=C(NCC(c1ccccc1)c1ncco1)C1=Nc2ccc(-c3cnn(CCO)c3)cc2S(=O)(=O)N1` (centres unmarked) [Example 10, 7-(1-(2-Hydroxyethyl)-1H-pyrazol-4-yl)-N-(2-(oxazol-2-yl)-2-phenylethyl)-2H-benzo[e][1,2,4]thiadiazine-3-carboxamide 1,1-dioxide], in that order: 0.0906 µM and 79.7 µM. For `Cc1ccc2c(c1)S(=O)(=O)NC(C(=O)NCC(c1ccccc1)c1ccccc1)=N2` [Example 16, N-(2,2-Diphenylethyl)-7-methyl-2H-benzo[e][1,2,4]thiadiazine-3-carboxamide 1,1-dioxide], in that order: 1.37 µM and 23.8 µM. Take `O=C(NCC(c1ccccc1)c1ccccc1)C1=Nc2ccc(C3CC3)cc2S(=O)(=O)N1` [Example 17, 7-Cyclopropyl-N-(2,2-diphenylethyl)-2H-benzo[e][1,2,4]thiadiazine-3-carboxamide 1,1-dioxide]: the IC50 in assay [1] came out at 3.33 µM; in assay [2], 51 µM. On to `O=C(NCC(c1ccccc1)c1ccccc1)C1=Nc2ccc(-c3ccn[nH]3)cc2S(=O)(=O)N1` [Example 22, N-(2,2-diphenylethyl)-7-(1H-pyrazol-5-yl)-2H-benzo[e][1,2,4]thiadiazine-3-carboxamide 1,1-dioxide], for which the IC50 in assay [1] was 1.98 µM; in assay [2], 72.4 µM. Consider `NC(=O)c1ccc2c(c1)S(=O)(=O)NC(C(=O)NCC(c1ccccc1)c1ncco1)=N2` (centres unmarked) [Example 27, N^3-(2-(Oxazol-2-yl)-2-phenylethyl)-2H-benzo[e][1,2,4]thiadiazine-3,7-dicarboxamide 1,1-dioxide], for which the IC50 in assay [1] was determined as 0.0195 µM; in assay [2] it was 1.29 µM.

In the case of `O=C(NCC(c1ccccc1)c1ccccc1)C1=Nc2ccc(-c3cccnc3)cc2S(=O)(=O)N1` [Example 37, N-(2,2-diphenylethyl)-7-(pyridin-3-yl)-2H-benzo[e][1,2,4]thiadiazine-3-carboxamide 1,1-dioxide], the IC50 was determined as 0.771 µM in assay [1] and 44 µM in assay [2].

As for `CNC(=O)C(CNC(=O)C1=Nc2ccccc2S(=O)(=O)N1)c1ccccc1` (centres unmarked) [Example 45, N-(3-(methylamino)-3-oxo-2-phenylpropyl)-2H-benzo[e][1,2,4]thiadiazine-3-carboxamide 1,1-dioxide], the IC50 amounted to 35.2 µM in assay [1] and 109 µM in assay [2].

As to `O=C(NCC(OC(=O)N1CCC1)c1ccccc1)C1=Nc2ccccc2S(=O)(=O)N1` (centres unmarked) [Example 51, 2-(1,1-dioxido-2H-benzo[e][1,2,4]thiadiazine-3-carboxamido)-1-phenylethyl azetidine-1-carboxylate], the IC50 was 4.82 µM in assay [1] and 25.3 µM in assay [2]. For `O=C(NCC(c1ccccc1)n1ccnn1)C1=Nc2ccccc2S(=O)(=O)N1` (centres unmarked) [Example 52, N-(2-phenyl-2-(1H-1,2,3-triazol-1-yl)ethyl)-2H-benzo[e][1,2,4]thiadiazine-3-carboxamide 1,1-dioxide], the half-maximal inhibitory concentration (IC50) in assay [1] worked out at 36.1 µM. As for `Cc1coc(C(CNC(=O)C2=Nc3ccccc3S(=O)(=O)N2)c2ccccc2)n1` (centres unmarked) [Example 53, N-(2-(4-methyloxazol-2-yl)-2-phenylethyl)-2H-benzo[e][1,2,4]thiadiazine-3-carboxamide 1,1-dioxide], the half-maximal inhibitory concentration (IC50) in assay [1] turned out to be 0.273 µM; in assay [2], 19.8 µM. As to `O=C(NCCc1cccc(F)c1)C1=Nc2ccccc2S(=O)(=O)N1` [Example 61], the IC50 in assay [1] and in assay [2] was over 125 µM in each case. Take `COc1cccc(CCNC(=O)C2=Nc3ccccc3S(=O)(=O)N2)c1` [Example 62]: the IC50 in assay [1] and in assay [2] was over 125 µM in each case.

With `O=C(NCCc1ccccc1F)C1=Nc2ccccc2S(=O)(=O)N1` [Example 63], the IC50 in assay [1] and in assay [2] was over 125 µM each time. `COc1ccccc1CCNC(=O)C1=Nc2ccccc2S(=O)(=O)N1` [Example 64]: the IC50 is 102 µM in assay [1] and 92.1 µM in assay [2].

Take `O=C(NCCc1ccccc1C(F)(F)F)C1=Nc2ccccc2S(=O)(=O)N1` [Example 65]: the IC50 in assay [1] is 53.9 µM; in assay [2] it was 85.4 µM. For `O=C(NCCc1ccc(F)cc1)C1=Nc2ccccc2S(=O)(=O)N1` [Example 66], in that order: over 125 µM and over 125 µM. For `Cc1ccc(CCNC(=O)C2=Nc3ccccc3S(=O)(=O)N2)cc1` [Example 67], in that order: over 125 µM and over 125 µM. For `O=C(NCCc1ccc(Cl)cc1)C1=Nc2ccccc2S(=O)(=O)N1` [Example 69], in that order: over 125 µM and over 125 µM.

As to `O=C(NCCc1cccnc1)C1=Nc2ccccc2S(=O)(=O)N1` [Example 70], the IC50 in assay [1] and in assay [2] was over 125 µM throughout. For the compound `CCOC(=O)C(CNC(=O)C1=Nc2ccccc2S(=O)(=O)N1)c1ccccc1` (centres unmarked) [Example 73, ethyl 3-(1,1-dioxido-2H-benzo[e][1,2,4]thiadiazine-3-carboxamido)-2-phenylpropanoate], the IC50 came to 10.1 µM in assay [2] and 26.4 µM in assay [3]. Turning to `COC(CNC(=O)C1=Nc2ccccc2S(=O)(=O)N1)c1ccccc1` (centres unmarked) [Example 74], the values for the IC50 in assay [1] and in assay [2] were 67.5 µM and over 125 µM, respectively.

As for `O=C(NCC(O)c1ccccc1)C1=Nc2ccccc2S(=O)(=O)N1` (centres unmarked) [Example 76], the IC50 in assay [1] and in assay [2] was over 125 µM each time. As for `O=C(NCC(Oc1ccccc1)c1ccccc1)C1=Nc2ccccc2S(=O)(=O)N1` (centres unmarked) [Example 77], the IC50 in assay [1] turned out to be 35.5 µM; in assay [2] it was 87 µM. As for `O=C(NCC(O)c1ccccc1F)C1=Nc2ccc(I)cc2S(=O)(=O)N1` (centres unmarked) [Example 89], the values for the IC50 in assay [2] and in assay [3] were 2.06 µM and 3.37 µM, respectively. `O=C(NCCc1ccccc1O)C1=Nc2ccc(I)cc2S(=O)(=O)N1` [Example 90]: the IC50 in assay [2] came to 0.96 µM; in assay [3], 0.915 µM. Turning to `COc1ccccc1C(O)CNC(=O)C1=Nc2ccc(I)cc2S(=O)(=O)N1` (centres unmarked) [Example 94], the IC50 came out at 2.82 µM in assay [2] and 3.8 µM in assay [3].

`O=C(NCC(O)c1ccccc1C(F)(F)F)C1=Nc2ccc(I)cc2S(=O)(=O)N1` (centres unmarked) [Example 95]: the figures for the 50% inhibitory concentration (IC50) in assay [2] and in assay [3] were 5.18 µM and 4.22 µM, respectively.

On to `O=C(NCCc1ccc(CO)cc1)C1=Nc2ccc(I)cc2S(=O)(=O)N1` [Example 103], for which the IC50 in assay [2] and in assay [3] was over 125 µM each time. As for `O=C(NCCc1ccncc1)C1=Nc2ccc(I)cc2S(=O)(=O)N1` [Example 104], the IC50 in assay [2] and in assay [3] was over 125 µM in each case. For `O=C(NCCc1ccc(O)cc1)C1=Nc2ccc(I)cc2S(=O)(=O)N1` [Example 105], the IC50 was 46.3 µM in assay [2] and over 125 µM in assay [3].

On to `COc1ccc(CCNC(=O)C2=Nc3ccc(I)cc3S(=O)(=O)N2)cc1` [Example 106], for which the IC50 in assay [2] and in assay [3] was over 125 µM in each case. For the compound `O=C(NCCc1ccccc1CO)C1=Nc2ccc(I)cc2S(=O)(=O)N1` [Example 109, N-(2-(hydroxymethyl)phenethyl)-7-iodo-2H-benzo[e][1,2,4]thiadiazine-3-carboxamide 1,1-dioxide], the values for the IC50 in assay [2] and in assay [3] were 3.42 µM and 5.95 µM, respectively.

Take `CNC(=O)c1ccccc1CCNC(=O)C1=Nc2ccc(I)cc2S(=O)(=O)N1` [Example 110]: the half-maximal inhibitory concentration (IC50) in assay [2] was 75.6 µM; in assay [3], 101 µM.

`CN(C)C(=O)c1ccccc1CCNC(=O)C1=Nc2ccc(I)cc2S(=O)(=O)N1` [Example 111]: the IC50 was determined as 16.6 µM in assay [2] and 81.4 µM in assay [3].

Regarding `O=C(NCC(O)c1ccccc1OCc1ccccc1)C1=Nc2ccc(I)cc2S(=O)(=O)N1` (centres unmarked) [Example 119], the IC50 in assay [2] is 5.26 µM; in assay [3], 18.5 µM. As for `COc1cccc(C(O)CNC(=O)C2=Nc3ccc(I)cc3S(=O)(=O)N2)c1` (centres unmarked) [Example 121], the figures for the concentration for half-maximal inhibition (IC50) in assay [2] and in assay [3] were 40.8 µM and 47 µM, respectively. For `O=C(NCC(F)c1ccccc1)C1=Nc2ccc(I)cc2S(=O)(=O)N1` (centres unmarked) [Example 123], in that order: 5.01 µM and 1.72 µM.

Consider `O=C(NCC(O)c1cccc(Cl)c1)C1=Nc2ccc(I)cc2S(=O)(=O)N1` (centres unmarked) [Example 124], for which the figures for the IC50 in assay [2] and in assay [3] were 24.6 µM and 18.7 µM, respectively.

As to `O=C(NCC(O)c1ccc(Cl)cc1)C1=Nc2ccc(I)cc2S(=O)(=O)N1` (centres unmarked) [Example 125], the IC50 in assay [2] and in assay [3] was over 125 µM in each case.

On to `O=C(NCC(O)c1cccc(F)c1)C1=Nc2ccc(I)cc2S(=O)(=O)N1` (centres unmarked) [Example 126], for which the IC50 in assay [2] stood at 31.3 µM; in assay [3] it was 12.4 µM. For `O=C(NCC(O)c1ccc(F)cc1)C1=Nc2ccc(I)cc2S(=O)(=O)N1` (centres unmarked) [Example 127], in that order: 61.2 µM and 34.7 µM. For `O=C(NCC(O)c1cccc(C(F)(F)F)c1)C1=Nc2ccc(I)cc2S(=O)(=O)N1` (centres unmarked) [Example 128], in that order: over 125 µM and over 125 µM.
